Read-outs that look alike come from different tables or passages of the source.
What was measured:
[1] = test system: human oral squamous carcinoma SCC-9 cells; assay: CCK-8 antiproliferative assay, SCC-9; format: cell-based; conditions: for IC50: Homo sapiens, read-out: IC50 (μM) SCC-9
Procedure: (§1) The in vitro antiproliferative activities of target compounds were investigated against human oral squamous carcinoma HSC-2, SCC-9, and A253 cells and human renal tubular epithelial HK-2 cells by Cell Counting Kit-8 (CCK-8) assay. The HSC-2, SCC-9, and A253 cell lines were purchased from Cobioer Biosciences (Nanjing, China), and HK-2 cell line was from KeyGen Biotech (Nanjing, China). The cells were placed into 96-well plates. After 24 h, cells were treated with 0.1% DMSO or different doses of test compounds for 72 h at 37°C in a CO2 incubator. Subsequently, 100 μl of CCK-8 test solution was added and incubated for 3 h at 37°C. The absorbance value of each well was measured at 450 nm.

[2] = test system: human oral squamous carcinoma HSC-2 cells; assay: CCK-8 antiproliferative assay, HSC-2; format: cell-based; conditions: for IC50: Homo sapiens, read-out: IC50 (μM) HSC-2
Procedure: as §1

[3] = test system: human oral squamous carcinoma A253 cells; assay: CCK-8 antiproliferative assay, A253; format: cell-based; conditions: for IC50: Homo sapiens, read-out: IC50 (μM) A253
Procedure: as §1

[4] = test system: human renal tubular epithelial HK-2 cells; assay: CCK-8 assay on normal cells, HK-2; format: cell-based; conditions: Homo sapiens, HK-2, 72 h, read-out: IC50 (μM) HK-2
Procedure: as §1

[5] = test system: human breast MCF-7 cells; parameters: method as in Sun et al., 2017; conditions: in vitro; ref Sun et al., 2017; read-out: IC50 against MCF-7 cells; cited from earlier work
[6] = test system: human non-small-cell lung carcinoma A549 cells; parameters: method as in Yang et al., 2019; conditions: ref Yang et al., 2019; read-out: IC50 against A549 cells; cited from earlier work
[7] = test system: MGC-803 cells; parameters: method as in Huang et al., 2017; conditions: in vitro; ref Huang et al., 2017; cited from earlier work
[8] = test system: NCI-H460 cells; parameters: method as in Huang et al., 2017; conditions: in vitro; ref Huang et al., 2017; cited from earlier work

| IC50 (μM) SCC-9 ([1]; CCK-8, 72 h, mean ± SD) | IC50 ([1]; SCC-9, CCK-8, 72 h, mean ± SD) [µM] | IC50 (μM) HSC-2 ([2]; CCK-8, 72 h, mean ± SD) | IC50 ([2]; HSC-2, CCK-8, 72 h, mean ± SD) [µM] | IC50 (μM) A253 ([3]; CCK-8, 72 h, mean ± SD) | IC50 ([3]; A253, CCK-8, 72 h, mean ± SD) [µM] | SMILES | also measured |
| --- | --- | --- | --- | --- | --- | --- | --- |
|  |  |  |  |  |  | COc1cc([C@@H]2c3cc4c(cc3[C@H](O)[C@H]3COC(=O)[C@H]23)OCO4)cc(OC)c1OC [compound 1, Podophyllotoxin] | IC50 ([1]; SCC-9, 72 h): 0.009 ± 0.001 µM; IC50 ([2]; HSC-2, 72 h): 0.011 ± 0.003 µM; IC50 ([3]; A253, 72 h): 0.01 ± 0.001 µM; IC50 [4]: 0.04 ± 0.006 µM |
|  |  |  |  |  |  | COc1cc(C2c3cc4c(cc3C(OC(=O)CN3CCN(c5ccc(Cl)c(Cl)c5)CC3)C3COC(=O)C23)OCO4)cc(OC)c1OC (centres unmarked) [compound 5] | IC50 [5]: 2780 ± 150 nM |
|  |  |  |  |  |  | COc1ccc(-c2coc3cc(OCC(=O)OC4c5cc6c(cc5C(c5cc(OC)c(OC)c(OC)c5)C5C(=O)OCC45)OCO6)ccc3c2=O)cc1 (centres unmarked) [compound 6] | IC50 [6]: 753 ± 173 nM |
| no antiproliferative effect | > 100 | no antiproliferative effect | > 100 | no antiproliferative effect | > 100 | Cc1cc(=O)oc2cc(O)ccc12 [compound 7, 4-methylumbelliferone] |  |
| no antiproliferative effect | > 100 | no antiproliferative effect | > 100 | no antiproliferative effect | > 100 | O=c1ccc2ccc(O)cc2o1 [compound 8, 7-hydroxycoumarin] |  |
|  |  |  |  |  |  | Cc1cc(=O)oc2c(CN3CCN(C(=O)Nc4ccc(Br)c(F)c4)CC3)c(O)ccc12 [compound 10] | IC50 [7]: 2130 ± 750 nM; IC50 [8]: 1860 ± 730 nM |
